Measurements reported in publication PMC9852552, “Emission of floral volatiles is facilitated by cell-wall non-specific lipid transfer proteins” (Nature Communications, 2023).
Several values for one entry are separate records, joined by “and”; a condition that tells them apart may be missing. Equal entries are not always repeated. Where two headings read alike, the source gives them in different places.

Tests used:
Type in all cases: binding, Petunia hybrida
PhnsLTP2 = test: Activity of PhnsLTP2 with TNS (TNS fluorescence); settings: three biological replicates (c2-c4); listed as PhnsLTP2+TNS
Protocol: (§1) To directly test whether PhnsLTP3 can bind petunia VOCs, in vitro displacement assays were performed using the recombinant PhnsLTP3 protein and fluorescent 6-(p-toluidino)−2-naphthalenesulfonate (TNS) in the presence of petunia volatiles. […] TNS fluoresces strongly when bound to the hydrophobic regions of the protein, while it has weak fluorescence in an aqueous solution. […] Potential ligands of the protein will displace the bound TNS from the hydrophobic protein pocket into the aqueous environment leading to a decrease in the fluorescent signal, which was used to calculate the dissociation constant of the protein with ligand. […]
(§2) The fluorescence-based-binding assays were performed largely according to previous publications[12],[52] with slight modifications. […] All mixtures were excited at 320 nm, and the fluorescence emission at 437 nm was recorded using a plate reader (SpectraMax iD3, Molecular Devices) at equilibrium after 5 min of incubation at 25 °C giving the background fluorescence Fmix0 and FTNS0 . The tested ligands dissolved in 2 µL DMSO were then added to the mixtures and TNS only to different final concentrations, and the fluorescence emissions were recorded at equilibrium after 5 min of incubation ( Fmixligand and FTNSligand ). […] The ratios RTNS=FTNSsol/FTNS0 and Rmix=Fmixsol/Fmix0 were calculated to calibrate the fluorescence. […]

PhnsLTP3 = test: Activity of PhnsLTP3 with TNS (TNS fluorescence); settings: for TNS fluorescence with boiled PhnsLTP3: three biological replicates
Protocol: (§3) To directly test whether PhnsLTP3 can bind petunia VOCs, in vitro displacement assays were performed using the recombinant PhnsLTP3 protein and fluorescent 6-(p-toluidino)−2-naphthalenesulfonate (TNS) in the presence of petunia volatiles. […] TNS fluoresces strongly when bound to the hydrophobic regions of the protein, while it has weak fluorescence in an aqueous solution. […] Potential ligands of the protein will displace the bound TNS from the hydrophobic protein pocket into the aqueous environment leading to a decrease in the fluorescent signal, which was used to calculate the dissociation constant of the protein with ligand. […] To test whether PhnsLTP2 and PhnsLTP3 can bind other VOCs, we assayed the terpenoids: limonene, linalool, and nerolidol, as well as methyl jasmonate in TNS displacement assays. Both PhnsLTP2 and PhnsLTP3 were able to bind tested volatile compounds with Kds in the micromolar range (Supplementary Figs. 16 and 17).
(§4) The fluorescence-based-binding assays were performed largely according to previous publications[12],[52] with slight modifications. […] All mixtures were excited at 320 nm, and the fluorescence emission at 437 nm was recorded using a plate reader (SpectraMax iD3, Molecular Devices) at equilibrium after 5 min of incubation at 25 °C giving the background fluorescence Fmix0 and FTNS0 . The tested ligands dissolved in 2 µL DMSO were then added to the mixtures and TNS only to different final concentrations, and the fluorescence emissions were recorded at equilibrium after 5 min of incubation ( Fmixligand and FTNSligand ). To account for the change in the TNS fluorescence intensity upon adding the solvent DMSO, the background fluorescence of TNS ( FTNSsol ) as well as each PhnsLTP with TNS ( Fmixsol ) were measured. The ratios RTNS=FTNSsol/FTNS0 and Rmix=Fmixsol/Fmix0 were calculated to calibrate the fluorescence. Three measurements were taken for each concentration. The results were expressed as a percentage of fluorescence quenched Fmixligand/Rmix−FTNSligand/RTNS/Fmix0−FTNS0×100% . The corresponding dissociation constants kd were obtained by non-linear regression fitting of the binding kinetics to the Michaelis-Menten equation.
Supplementary Figure 15 | Protein purification and characterization of PhnsLTP1, PhnsLTP2, and PhnsLTP3 activity with TNS. a, SDS-PAGE analysis of PhnsLTP1 after affinity chromatography on Ni-NTA agarose (lane A) and subsequent cation exchange chromatography on HiTrapTM SP HP-Cytiva (lane B). 5.3 µg protein were loaded per each lane .b, SDS-PAGE analysis of 8.75 µg of purified PhnsLTP 1, PhnsLTP 2 , and PhnsLTP 3. […] P values were determined by one-way ANOVA with the Tukey’s multiple comparisons test relative to TNS background (black) and boiled PhnsLTP3 in the presence of 200 mM DTT (blue). […]

PhnsLTP1 = test: Activity of PhnsLTP1 with TNS (TNS fluorescence)
Protocol: as §1, §2

recombinant PhnsLTP2 = test: TNS displacement assay with recombinant PhnsLTP2; settings: PhnsLTP2 1 µM, TNS 3 µM; non-linear fitting to Michaelis-Menten equation; means ± S.E., n = 3; read-out: dissociation constant Kd (PhnsLTP2)
Protocol: as §3, §4
Supplementary Figure 16 | Binding kinetics of recombinant PhnsLTP2 with phenylpropanoids/benzenoids by petunia flowers, terpenoids and methyl jasmonate.
TNS displacement assays were performed at fixed concentrations of PhnsLTP2 (1 µM) and TNS (3 µM) and the fluorescence was measured before and after the tested compounds were added at various concentrations. The results are expressed as percentage of fluorescence quenched with respect to the concentration of added compound. The binding curves were obtained by non-linear fitting to the Michaelis-Menten equation (solid line in the graph) and the dissociation constants Kd [µM] were obtained. Phenylacetaldehyde, eugenol, and […]
corresponding binding curves. All data are means ±S.E. (n = 3 biological replicates).

recombinant PhnsLTP3 = test: TNS displacement assay with recombinant PhnsLTP3; settings: for Kd / Percentage fluorescence quenched: PhnsLTP3 1 µM, TNS 3 µM; for Kd: means ± S.E., n = 3; for Percentage fluorescence quenched: three biological replicates (c2-c4); for Percentage fluorescence quenched (%): biological replicates 1-3, Supplementary Figure 16
Protocol: as §3
Fig. 5 Binding kinetics of recombinant PhnsLTP3 with VOCs emitted by petunia flowers. TNS displacement assays were performed at fixed concentrations of PhnsLTP3 (1 µM) and TNS (3 µM) and the fluorescence was measured before and after the tested compounds were added at various concentrations. The results are expressed as percentage of fluorescence quenched with respect to the concentration of added compound. The binding curves were obtained by non-linear fitting to the Michaelis-Menten equation (solid line in the graph) and the dissociation constants Kd [µM] were obtained. […] All data are means ± S.E. (n = 3 biological replicates).
as §4
The binding curves of PhnsLTP3 with various VOC compounds were obtained by non-linear fitting to the one-binding-site (Eq. (1)) and two-binding-site (Eq. (2)) models. The equations assume that the ligand binds to multiple independent binding sites and that the binding to each site follows the law of mass action:1 %offluorescencequenched=Bmax×[TNS]/kd+[TNS] 2 %offluorescencequenched=Bmax1×[TNS]/kd1+[TNS]+Bmax2×[TNS]/kd2+[TNS] […]
PhnsL TP3 (1 µ M)and TNS (3 µ M)and the fluorescence was measured before and after the tested compounds were added at various concentrations. The results are expressed as percentage of fluorescence quenched with respect to the concentration of added compound.
The binding curves were obtained by non-linear fitting to the Michaelis-Menten equation (solid line in the graph) and the dissociation constants Kd [µ M]were obtained. All data are means ±S.E. (n = 3 biological replicates).
Supplementary Figure 25 | Analysis of number of binding sites of PhnsLTP3.
TNS displacement assay was performed at fixed concentrations of PhnsLTP3 (1 µM) and TNS (3 µM) and the fluorescence was measured before and after methyl […]

[1] = non-linear fitting to Michaelis-Menten equation (one binding site), read-out: dissociation constant Kd (PhnsLTP3)

Compound | Kd (recombinant PhnsLTP2) | Kd (recombinant PhnsLTP3; [1]) | Percentage fluorescence quenched (recombinant PhnsLTP3; VOC concentration 3 µM) | Percentage fluorescence quenched (recombinant PhnsLTP3; VOC concentration 30 µM) | Percentage fluorescence quenched (recombinant PhnsLTP3; VOC concentration 300 µM) | Percentage fluorescence quenched (recombinant PhnsLTP3; VOC concentration 1500 µM) | Percentage fluorescence quenched (recombinant PhnsLTP3; VOC concentration 3000 µM) | further results
Cc1ccc(Nc2ccc3cc(S(=O)(=O)O)ccc3c2)cc1 [TNS, 6-(p-toluidino)−2-naphthalenesulfonate] | – | – | – | – | – | – | – | TNS fluorescence with PhnsLTP2 (PhnsLTP2): 1288048 A.U. and 1292857 A.U. and 1304928 A.U.; TNS fluorescence with boiled PhnsLTP3 (PhnsLTP3; boiled PhnsLTP3 in the presence of 200 mM DTT (negative control), listed as Boiled PhnsLTP3+TNS (200 mM DTT)): 508777 A.U. and 481415 A.U. and 534530 A.U.; TNS fluorescence with boiled PhnsLTP3 (PhnsLTP3; boiled PhnsLTP3 in the presence of 400 mM DTT (negative control), listed as Boiled PhnsLTP3+TNS (400 mM DTT)): 531842 A.U. and 534148 A.U. and 522476 A.U.; TNS fluorescence in the presence of PhnsLTP3 (in words) (PhnsLTP3; relative to buffer and denatured, dithiothreitol-reduced PhnsLTP3 controls): intense TNS fluorescence; TNS fluorescence with PhnsLTP3 (PhnsLTP3; three biological replicates (c2-c4), listed as PhnsLTP3+TNS): 1399068 A.U. and 1386931 A.U. and 1338392 A.U.; TNS-binding activity of PhnsLTP1 (in words) (PhnsLTP1): did not display TNS-binding activity; TNS fluorescence with PhnsLTP1 (PhnsLTP1; three biological replicates (c2-c4), listed as PhnsLTP1+TNS): 198735 A.U. and 195455 A.U. and 188087 A.U.
COC(=O)c1ccccc1 [Methylbenzoate] | 534 ± 302 µM | 271 ± 91.1 µM | 6.48% and 6.57% (2×) | 10.07% and 16.15% and 14.94% | 37.30% and 35.09% and 38.77% | 74.64% and 66.75% and 71.33% | 78.82% and 71.40% and 74.18% | Kd (recombinant PhnsLTP3; two-binding-site fit, read-out: dissociation constant Kd1 (PhnsLTP3, two-binding-site model)): 521 ± 89.5 µM; Kd (recombinant PhnsLTP3; two-binding-site fit, read-out: dissociation constant Kd2 (PhnsLTP3, two-binding-site model)): 2 ± 1.9 µM; Percentage fluorescence quenched (%) (recombinant PhnsLTP3; VOC concentration 3 µM): 8.70% and 11.37% and 17.83%; Percentage fluorescence quenched (%) (recombinant PhnsLTP3; VOC concentration 30 µM): 3.75% and 8.76% and 8.44%; Percentage fluorescence quenched (%) (recombinant PhnsLTP3; VOC concentration 300 µM): 16.10% and 21.79% and 13.64%; Percentage fluorescence quenched (%) (recombinant PhnsLTP3; VOC concentration 1500 µM): 40.72% and 46.43% and 46.19%; Percentage fluorescence quenched (%) (recombinant PhnsLTP3; VOC concentration 3000 µM): 46.60% and 49.81% and 49.98%
O=Cc1ccccc1 [Benzaldehyde] | 344 ± 80.7 µM | 276 ± 59.8 µM | 3.47% and 6.56% and 12.79% | 19.94% and 11.97% and 16.71% | 45.75% and 56.38% and 51.72% | 74.25% and 79.55% and 80.00% | 86.84% and 86.38% and 86.21% | –
